One test addresses PIK3CA (human) (UniProt P42336). As to the kind of experiment: Inhibition of PIK3CA Kinase Activity.
Test [1] concerns the target PIK3CA (human), P42336 [Antiproliferation of PI3K Mutated BT20 Cells]. In words: Cell-Based Assay.

What is called IC50 is the concentration needed to halve the response being measured. Read a high IC50 as lower potency.

SMILES strings stand for the structures.

PIK3CA (human), P42336 [Antiproliferation of PI3K Mutated BT20 Cells], sequence (P42336 whole entry, looked up, change not shown): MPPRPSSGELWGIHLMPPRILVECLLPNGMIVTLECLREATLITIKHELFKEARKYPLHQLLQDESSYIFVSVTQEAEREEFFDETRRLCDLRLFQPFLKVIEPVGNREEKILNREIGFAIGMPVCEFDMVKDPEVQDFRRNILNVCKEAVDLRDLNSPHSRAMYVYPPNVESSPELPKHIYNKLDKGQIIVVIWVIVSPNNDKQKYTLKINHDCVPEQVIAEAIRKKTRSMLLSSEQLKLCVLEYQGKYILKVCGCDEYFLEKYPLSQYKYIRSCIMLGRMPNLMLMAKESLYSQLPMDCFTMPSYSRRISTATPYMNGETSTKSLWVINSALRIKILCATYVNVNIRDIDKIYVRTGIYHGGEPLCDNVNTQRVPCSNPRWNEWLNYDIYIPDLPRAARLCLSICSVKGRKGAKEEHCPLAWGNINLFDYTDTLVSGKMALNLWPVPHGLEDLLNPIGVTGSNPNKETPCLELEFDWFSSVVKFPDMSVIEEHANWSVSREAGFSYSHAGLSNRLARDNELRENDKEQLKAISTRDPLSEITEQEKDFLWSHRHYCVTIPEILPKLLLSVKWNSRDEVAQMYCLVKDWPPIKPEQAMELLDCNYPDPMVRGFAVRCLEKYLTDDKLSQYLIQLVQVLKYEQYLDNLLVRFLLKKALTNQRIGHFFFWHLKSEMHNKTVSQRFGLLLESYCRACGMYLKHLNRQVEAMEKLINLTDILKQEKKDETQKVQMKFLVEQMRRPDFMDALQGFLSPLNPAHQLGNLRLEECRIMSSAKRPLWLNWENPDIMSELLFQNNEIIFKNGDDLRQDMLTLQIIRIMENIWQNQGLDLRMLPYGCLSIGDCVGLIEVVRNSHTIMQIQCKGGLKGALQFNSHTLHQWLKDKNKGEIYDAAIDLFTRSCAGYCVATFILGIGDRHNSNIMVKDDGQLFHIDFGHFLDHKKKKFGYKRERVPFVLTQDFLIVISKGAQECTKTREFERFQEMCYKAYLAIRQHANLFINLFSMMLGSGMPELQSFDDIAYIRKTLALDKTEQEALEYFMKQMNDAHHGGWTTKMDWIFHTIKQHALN
PIK3CA (human), sequence (P42336 whole entry, looked up): as the sequence (P42336 whole entry, looked up, change not shown) above

For `Cc1nc(N)nc2c1cc(C(=O)Nc1ccn[nH]1)c(=O)n2C(C)C`, the 50% inhibitory concentration (IC50) came to 0.0029 µM on PIK3CA (human) and 0.0305 µM in test [1].
On the same counts, the results for `COc1ccc(-c2cc3c(C)nc(N)nc3n(C3CN(C(=O)OC(C)(C)C)C3)c2=O)cn1` are 0.029 µM and 0.318 µM.
On to `CNc1nc(C)c2cc(-c3cnn(C)c3)c(=O)n(C3CCCC3)c2n1`, for which the IC50 at PIK3CA (human) came out at 0.039 µM; in test [1], 0.314 µM.
Consider `COc1ccc(-c2cc3c(C)nc(N)nc3n([C@H]3C[C@H](OCC(N)=O)C3)c2=O)cn1`, for which the figures for the IC50 (at PIK3CA (human); in test [1]) were 0.00472 µM and 0.0335 µM, respectively.
Take `Cc1nc(N)nc2c1cc(-c1cnn(CC(C)(C)O)c1)c(=O)n2C1CCCC1`: the IC50 against PIK3CA (human) was 0.089 µM; in test [1], 0.101 µM.
Regarding `Cc1nc(N)nc2c1cc(-c1cnn(C)c1)c(=O)n2C1CCCC1`, the results for the IC50 (on PIK3CA (human); in test [1]) were 0.032 µM and 0.623 µM, respectively.
For `COc1ccc(-c2cc3c(C)nc(N)nc3n(C3CCCC3)c2=O)cc1F`, the values for the IC50 (at PIK3CA (human); in test [1]) were 0.015 µM and 0.0459 µM, respectively.
As to `Cc1nc(N)nc2c1cc(-c1cccc(O)c1)c(=O)n2C1CCCC1`, the IC50 against PIK3CA (human) was found to be 0.000524 µM; in test [1], 0.00484 µM.
Take `Cc1nc(N)nc2c1cc(-c1cnn(CCO)c1)c(=O)n2C1CCCC1`: the IC50 against PIK3CA (human) was found to be 0.045 µM; in test [1] it was 0.495 µM.
As to `Cc1nc(N)nc2c1cc(C(=O)Nc1ccn[nH]1)c(=O)n2[C@H]1CC[C@H](O)CC1`, the IC50 at PIK3CA (human) stood at 0.00059 µM; in test [1] it was 0.0283 µM.
On the same counts, the results for `CNc1nc(C)c2cc(-c3ccc(OC)nc3)c(=O)n(C3CCC3)c2n1` are 0.0063 µM and 0.0584 µM.
`Cc1nc(N)nc2c1cc(-c1ccc3cc[nH]c3n1)c(=O)n2[C@H]1CC[C@@H](O)CC1`: the IC50 is 0.0016 µM against PIK3CA (human) and 0.0254 µM in test [1].
For the molecule `CO[C@H]1CC[C@H](n2c(=O)c(-c3cc[nH]n3)cc3c(C)nc(N)nc32)CC1`, the figures for the IC50 (against PIK3CA (human); in test [1]) were 0.0095 µM and 0.0172 µM, respectively.
On the same counts, the results for `CCNc1nc(C)c2cc(-c3cnc4[nH]ccc4c3)c(=O)n(C3CCCC3)c2n1` are 0.00177 µM and 0.0461 µM.
With `Cc1nc(N)nc2c1cc(Br)c(=O)n2[C@H]1CC[C@H](O)CC1`, the IC50 at PIK3CA (human) came out at 0.044 µM; in test [1], 0.305 µM.
On the same counts, the results for `Cc1nc(N)nc2c1cc(Br)c(=O)n2C1CCC(=O)CC1` are 0.11 µM and 0.211 µM.
Regarding `Cc1nc(N)nc2c1cc(-c1c[nH]nn1)c(=O)n2C(C)C`, the IC50 against PIK3CA (human) came to 0.062 µM; in test [1], 0.556 µM.
Consider `C=CCn1c(=O)c(-c2ccc(OC)nc2)cc2c(C)nc(NC)nc21`, for which the IC50 at PIK3CA (human) was determined as 0.017 µM; in test [1], 0.106 µM.
On the same counts, the results for `CNc1nc(C)c2cc(/C=C/O)c(=O)n(C3CCCC3)c2n1` are 0.042 µM and 0.896 µM.
In the case of `CCNc1nc(C)c2cc(CCC(=O)O)c(=O)n(C3CCCC3)c2n1`, the IC50 was determined as 0.054 µM against PIK3CA (human) and 10 µM in test [1].
For `CNc1nc(C)c2cc(C#N)c(=O)n(C3CCCC3)c2n1` the same measures were 0.06 µM and 0.603 µM.
On the same counts, the results for `COc1ncc(-c2cc3c(C)nc(N)nc3n([C@H]3CC[C@H](OCCO)CC3)c2=O)cn1` are 0.0022 µM and 0.0389 µM.
On the same counts, the results for `Cc1nc(N)nc2c1cc(-c1ccc(Cl)nc1)c(=O)n2C1CCCC1` are 0.0391 µM and 0.0742 µM.
As for `Cc1nc(N)nc2c1cc(-c1cnc(O)nc1)c(=O)n2C1CCOCC1`, the IC50 at PIK3CA (human) came out at 0.81 µM; in test [1], 10 µM.
For `Cc1nc(N)nc2c1cc(-c1cnc3[nH]ccc3c1)c(=O)n2[C@@H]1CC[C@@H](O)C1` the same measures were 0.0012 µM and 0.0558 µM.
As to `Cc1nc(N)nc2c1cc(-c1cnn(C(=O)OC(C)(C)C)c1)c(=O)n2N1CCCC1`, the IC50 stood at 0.093 µM against PIK3CA (human) and 0.00508 µM in test [1].
For `CNc1nc(C)c2cc(-c3cnc4[nH]ccc4c3)c(=O)n(C3CCCC3)c2n1` the same measures were 0.00075 µM and 0.00382 µM.
As for `Cc1nc(N)nc2c1cc(-c1ccc(N(C)C)nc1)c(=O)n2[C@H]1CC[C@H](OCCO)CC1`, the IC50 at PIK3CA (human) was 0.00928 µM; in test [1], 0.0121 µM.
Regarding `COc1ccc(-c2cc3c(C)nc(N)nc3n(C3CCN(C(=O)OC(C)(C)C)C3)c2=O)cn1` (configuration not stated), the IC50 worked out at 0.027 µM against PIK3CA (human) and 0.172 µM in test [1].
Regarding `CNc1nc(C)c2cc(-c3ccc(OC)nc3)c(=O)[nH]c2n1`, the IC50 is 0.46 µM against PIK3CA (human) and 2.76 µM in test [1].
Take `Cc1nc(N)nc2c1cc(Br)c(=O)n2CC1CCOC1` (configuration not stated): the IC50 came to 0.094 µM on PIK3CA (human) and 1.02 µM in test [1].
Turning to `Cc1nc(N)nc2c1cc(Br)c(=O)n2CC1CCCO1` (configuration not stated), the IC50 on PIK3CA (human) turned out to be 0.1 µM; in test [1], 2.13 µM.
In the case of `CNc1nc(C)c2cc(Br)c(=O)n(CC3CCOC3)c2n1` (configuration not stated), the IC50 at PIK3CA (human) turned out to be 0.048 µM; in test [1], 0.594 µM.
Consider `Cc1nc(N)nc2c1cc(Br)c(=O)n2C1CCOC1` (configuration not stated), for which the IC50 was determined as 0.23 µM at PIK3CA (human) and 1.67 µM in test [1].
For `Cc1nc(N)nc2c1cc(-c1ccc(N3CCCC3)nc1)c(=O)n2C1CCCC1`, the half-maximal inhibitory concentration (IC50) at PIK3CA (human) was 0.088 µM; in test [1], 0.0265 µM.
`Cc1nc(N)nc2c1cc(Br)c(=O)n2[C@H]1CC[C@H](OCCO)CC1`: the IC50 came out at 0.0552 µM on PIK3CA (human) and 0.0965 µM in test [1].
For `COc1ccc(-c2cc3c(C)nc(N)nc3n([C@@H]3CC[C@H](O)C3)c2=O)cn1`, the IC50 against PIK3CA (human) was determined as 0.011 µM; in test [1] it was 0.0829 µM.
Take `CCNc1nc(C)c2cc(CCC(=O)OCC)c(=O)n(C3CCCC3)c2n1`: the concentration for half-maximal inhibition (IC50) against PIK3CA (human) stood at 5.5 µM; in test [1] it was 10 µM.
Take `Cc1nc(N)nc2c1cc(-c1cn[nH]c1)c(=O)n2C1CCOC1` (configuration not stated): the concentration for half-maximal inhibition (IC50) against PIK3CA (human) turned out to be 0.02 µM; in test [1] it was 0.0258 µM.
Consider `Cc1nc(N)nc2c1cc(-c1cccc(CO)c1)c(=O)n2C1CCCC1`, for which the 50% inhibitory concentration (IC50) against PIK3CA (human) is 0.0031 µM; in test [1], 0.0202 µM.
For `CNc1nc(C)c2cc(-c3ccc(Cl)nc3)c(=O)n(C3CCCC3)c2n1`, the figures for the IC50 (against PIK3CA (human); in test [1]) were 0.0297 µM and 0.146 µM, respectively.
On the same counts, the results for `COc1ccc(-c2cc3c(C)nc(N)nc3n(CC3CCOCC3)c2=O)cn1` are 0.015 µM and 0.0884 µM.
On the same counts, the results for `Cc1nc(N)nc2c1cc(-c1cn[nH]c1)c(=O)n2C1CCC(C)(O)CC1` (configuration not stated) are 0.018 µM and 0.0152 µM.
Regarding `CCNc1nc(C)c2cc(-c3cnc(OC)c(F)c3)c(=O)n([C@H]3CC[C@H](O)CC3)c2n1`, the figures for the IC50 (against PIK3CA (human); in test [1]) were 0.000788 µM and 0.0051 µM, respectively.
Consider `COc1ncc(-c2cc3c(C)nc(N)nc3n(C3CCOCC3)c2=O)cn1`, for which the IC50 was found to be 0.045 µM on PIK3CA (human) and 0.0267 µM in test [1].
As to `Cc1nc(N)nc2c1cc(-c1cnc3ccccc3c1)c(=O)n2[C@H]1CC[C@H](O)CC1`, the IC50 at PIK3CA (human) was determined as 0.0082 µM; in test [1], 0.042 µM.
Take `Cc1nc(N)nc2c1cc(Br)c(=O)n2[C@H]1CC[C@@H](O)CC1`: the figures for the half-maximal inhibitory concentration (IC50) (against PIK3CA (human); in test [1]) were 0.13 µM and 0.228 µM, respectively.
`COc1ncccc1-c1cc2c(C)nc(N)nc2n(C2CCCC2)c1=O`: the IC50 stood at 0.856 µM on PIK3CA (human) and 5.48 µM in test [1].
For `CCOc1ccc(-c2cc3c(C)nc(N)nc3n([C@H]3CC[C@H](O)CC3)c2=O)cn1` the same measures were 0.0027 µM and 0.0212 µM.
On the same counts, the results for `CNc1nc(C)c2cc(-c3ccc(O)c(OC)c3)c(=O)n(C3CCCC3)c2n1` are 0.00157 µM and 0.00382 µM.
Regarding `COc1ncc(-c2cc3c(C)nc(N)nc3n(C(C)C)c2=O)cn1`, the IC50 against PIK3CA (human) was 0.0022 µM; in test [1], 0.0493 µM.
Turning to `COc1ncc(-c2cc3c(C)nc(N)nc3n([C@H]3C[C@H](OCCO)C3)c2=O)cn1`, the IC50 at PIK3CA (human) came to 0.00665 µM; in test [1], 0.0935 µM.
For `COc1ccc(-c2cc3c(C)nc(N)nc3n(CCC3CC3)c2=O)cn1` the same measures were 0.011 µM and 0.0942 µM.
Regarding `COc1cc(-c2cc3c(C)nc(N)nc3n(C3CCCC3)c2=O)ccc1O`, the IC50 against PIK3CA (human) is 0.000989 µM; in test [1] it was 0.019 µM.
Consider `Cc1nc(N)nc2c1cc(-c1cnc3[nH]ccc3c1)c(=O)n2C1CC1`, for which the results for the IC50 (against PIK3CA (human); in test [1]) were 0.017 µM and 0.138 µM, respectively.
For the molecule `CCNc1nc(C)c2cc(-c3cccnc3N)c(=O)n(C3CCCC3)c2n1`, the IC50 against PIK3CA (human) was 3.4 µM; in test [1], 7.98 µM.
Consider `Cc1nc(N)nc2c1cc(-c1cn[nH]c1)c(=O)n2[C@H]1CC[C@H](O)CC1`, for which the IC50 against PIK3CA (human) worked out at 0.0067 µM; in test [1], 0.169 µM.
Turning to `COc1ccc(-c2cc3c(C)nc(N)nc3n(CC3CCCO3)c2=O)cn1` (configuration not stated), the figures for the IC50 (at PIK3CA (human); in test [1]) were 0.021 µM and 0.12 µM, respectively.
For `Cc1nc(N)nc2c1cc(-c1cccnc1N)c(=O)n2C1CCCC1` the same measures were 1.43 µM and 9.01 µM.
Regarding `COc1cccc(-c2cc3c(C)nc(N)nc3n(C3CCCC3)c2=O)c1`, the IC50 came to 0.168 µM at PIK3CA (human) and 0.622 µM in test [1].
As to `CNc1nc(C)c2cc(-c3cn[nH]c3)c(=O)n(CC3CCOC3)c2n1` (configuration not stated), the IC50 on PIK3CA (human) worked out at 0.006 µM; in test [1], 0.0221 µM.
On the same counts, the results for `COc1ccc(-c2cc3c(C)nc(N)nc3n([C@H]3C[C@H](OCCO)C3)c2=O)cn1` are 0.0102 µM and 0.0508 µM.
In the case of `Cc1nc(N)nc2c1cc(-c1cn[nH]c1)c(=O)n2C1CCC(=O)CC1`, the IC50 stood at 0.012 µM on PIK3CA (human) and 0.00466 µM in test [1].
On the same counts, the results for `COc1ccc(-c2cc3c(C)nc(N)nc3n(CC3(F)CCOCC3)c2=O)cn1` are 0.018 µM and 0.316 µM.
For `Cc1nc(N)nc2c1cc(-c1ccc(N3CCCC3)nc1)c(=O)n2[C@H]1CC[C@H](O)CC1`, the IC50 at PIK3CA (human) worked out at 0.019 µM; in test [1], 0.00492 µM.
Take `COc1ncc(-c2cc3c(C)nc(N)nc3n([C@H]3CC[C@H](OCCO)CC3)c2=O)cc1F`: the figures for the IC50 (on PIK3CA (human); in test [1]) were 0.00144 µM and 0.0053 µM, respectively.

Source of the values: the Kinase Knowledgebase extract (Sharma et al. 2016).
